In article PMC8911944, “Screening of Natural Products Inhibitors of SARS-CoV-2 Entry” (Molecules, 2022):

system: pseudotyped HIV-1 with the D614G SARS-CoV-2 spike glycoprotein; assay type: cell-based

Compound	Antiviral Activity (% of Inhibition)	IC50 (50% inhibitory concentration)
CC1=C[C@H](O)[C@H]2C[C@@H]1C2(C)C (relative stereo) [cis-Verbenol]	−171.26 ± 32.54%	
C/C=C/[C@H]1OC(=O)C=C[C@H]1OC(C)=O [Acetylphomolactone]	−0.65 ± 6.16%	
CC(=O)OC1C=CC(=O)OC1C1OC1C (stereo not drawn) [Asperline]	−15.48 ± 8.34%	
CC(=O)C1COC(O)C1C (stereo not drawn) [Botryodiplodin]	−88.21 ± 12.51%	
C=C1CC[C@H]2O[C@]2(C)CC[C@@H]2[C@@H]1CC2(C)C [Caryophyllene Oxide]	43.82 ± 6.31%	
C[C@H]1CC[C@@H](C(C)(C)O)CC2=C1CC[C@@H]2C [Guaiol]	−60.20 ± 8.02%	
CC(O)[C@@H]1NC(=O)c2cccn2C1=O (stereo partly drawn) [Macrophominol]	−91.39 ± 26.65%	
C=C(C)[C@H]1CC=C(C)CC1 [R-Limonene]	−27.90 ± 16.41%	
C/C=C/c1ccc(OC)cc1 [Trans-anethole]	5.02 ± 0.71%	
C=C1CC/C=C(\C)CC[C@@H]2[C@@H]1CC2(C)C [β-Caryophyllene]		98.5
Isoasperline	−19.82 ± 10.21%	
S-Limonene	−62.63 ± 22.17%	
